The target of assay [1] is T1, prothrombinase-activated wild-type prothrombin (Homo sapiens, UniProt P00734). Description: Inhibition of pNAPEP-0238 peptidyl substrate conversion in a purified system. The note with it: wild-type thrombin, observed vs reported (ref 41). It counts as biochemical. Here is the method:
(§1) Prothrombin variants were activated to thrombin by prothrombinase immediately prior to analyses. Reaction mixtures of prothrombin variant (1 μM) and preassembled prothrombinase (2 nM FXa, 2 nM FV-810, and 50 μM phospholipid TGT, final concentrations) were incubated for 30 minutes at 25°C in assay buffer, upon which the reaction was quenched in dilution buffer supplemented with 50 mM EDTA.

Another assay concerns the target wild-type thrombin. To be noted: read-out: reported K i, substrate conversion; cited from earlier work.
The target of assay [2] is T1, prothrombinase-activated wild-type prothrombin. To be noted: 1 μM dabigatran. Here is the method: Fibrinogen conversion was determined employing a turbidity assay. […] Turbidity was measured for 1 hour at 25°C and 350 nm.
A further assay relates to thrombin. The note with it: read-out: reported IC50, peak thrombin formation; cited from earlier work.
The target in assay [3] is prothrombinase-activated prothrombin-KL3. It counts as biochemical, human. Here is the method:
as §1

A further assay relates to FXa. On the set-up: method as in PMID 28904343, PMID 38729577. The note with it: S4 subsite modified FXa variants; cited from earlier work.

SMILES strings stand for the structures.

We go through four compounds from paper PMC12758957 (Thrombosis and Haemostasis, 2025).

As for `CC1CNc2c(cccc2S(=O)(=O)N[C@@H](CCCNC(=N)N)C(=O)N2CC[C@@H](C)C[C@@H]2C(=O)O)C1` (some centres unmarked) [Argatroban], in assay [1], the “lower K i value observed versus reported” value amounted to 13 fold.
`[H]/N=C(/N)c1ccc(NCc2nc3cc(C(=O)N(CCC(=O)O)c4ccccn4)ccc3n2C)cc1` [Dabigatran]: the Ki at wild-type thrombin is 5 nM; in assay [3] (KL3, Cheng-Prusoff equation), 150 nM. Moreover, the “fibrinogen conversion by activated wild-type prothrombin (in words)” value in assay [2] is given as “no detectable fibrinogen conversion”. The IC50 – broadly, the midpoint of a concentration-inhibition curve – in the assay on thrombin is […]; in assay [3] (5 nM prothrombinase-activated KL3, 50 μM pNAPEP-0238, read-out: IC50, pNAPEP-0238 conversion), 237 ± 33 nM.
For the compound `COc1ccc(-n2nc(C(N)=O)c3c2C(=O)N(c2ccc(N4CCCCC4=O)cc2)CC3)cc1` [apixaban], the “hindered FXa active site engagement by inhibitor” value in the assay with FXa was no more than 800 fold.
For the compound `O=C(NC[C@H]1CN(c2ccc(N3CCOCC3=O)cc2)C(=O)O1)c1ccc(Cl)s1` [rivaroxaban], the “hindered FXa active site engagement by inhibitor” value with FXa is no more than 800 fold.
